Tested on: deferoxamine-gallium (III) cation capture agent
Assay: AlphaScreen proximity assay: binding of biotinylated target molecules to deferoxamine-gallium (III) cation acceptor beads
Procedure: To prepare desferrioxamine complexed with gallium (III) cation and desferrioxamine complexed with iron (III), as a capture agents attached to a plastic bead support, desferrioxamine was first attached to plastic beads as follows: 5 mg of deferoxamine, 250 ul of raw AlphaScreen™ acceptor beads (at 20 mg/ml), 6 ul of TWEEN™ 20 detergent (at 10% in water), 50 ul of sodium cyanoborohydride (at 25 mg/ml in water) and 695 ul of MES 0.1 M, pH 6.0 were mixed. The mixture was incubated overnight at 37° C. in an agitating water bath. The following morning, 50 ul of carboxymethoxylamine (at 65 mg/ml in water, pH 5) was added, and the mixture was incubated for 1 hour at 37° C. The beads were then centrifuged (30 minutes at 13,000 rpm), washed twice with TRIS buffer (0.1 M, pH 8.0).
To form a complex of desferrioxamine with transition metal cations, the beads were resuspended in HEPES buffer (25 mM, pH 7.4) containing 100 mM gallium (III) or iron (III) chloride. After 1 hour of incubation, the beads were centrifuged, washed twice with HEPES buffer (25 mM pH 7.4) and resuspended in HEPES buffer. Sonication optionally can be used to eliminate aggregates of beads. […]
The ability of deferoxamine-gallium (III) cation capture agents to bind to target molecules was confirmed using AlphaScreen™ assays. […] Alternatively, competition or cleavage assays can be read as signal reduction. […]

concentration at which maximal signal was not yet reached: > 1 µM | concentration at which detection starts (HEPES buffer, streptavidin donor beads, triplicate): around 300 pM
Substance: biotin-phosphoinositide-3,4,5-trisphosphate [biotin-PIP3]
